According to patent publication US8715621B2, “Radical polarizing agents for dynamic nuclear polarization” (Massachusetts Institute of Technology, priority 2012, dated 2014):

Assays:
[1] = Solubility in water / aqueous media; format: physicochemical
Stability in air = format: physicochemical
[2] = EPR spectrum: line width, aggregation, dimerization; conditions: solution, glass or solid

1,3-bisdiphenylene-2-phenylallyl [BDPA]
solubility in water / aqueous media [1]: lack of solubility in aqueous media | air stability (Stability in air): air stable | aggregate formation or radical dimerization [2]: no dimerization in solid or in solution
